Common to all, as to type: cell-based
In assay [1] the target is T1, Ba/F3 KIF5B-RET^V804M cells (Homo sapiens, UniProt P07949, V804M, cells depend on it).
T1 construct: Ba/F3 KIF5B-RET^V804M IC50 (nM); other: CellTiter-Glo, 72 hrs; fused on or other part: P33176 (Kinesin-1 heavy chain)
Briefly: Cytotoxicity assay (CellTiter-Glo), Ba/F3 KIF5B-RET V804M. Conditions: CellTiter-Glo, 72 hrs; read-out: Ba/F3 KIF5B-RET^V804M IC50. Here is the method: (§1) Inhibitory effects of example compounds on the activity of Ba/F3 parental generation, Ba/F3 KIF5B-RET, Ba/F3 KIF5B-RET^V804M, Ba/F3 KIF5B-RET^V804L, Ba/F3 KIF5B-RET^G810R, Ba/F3 FLT3-ITD, Ba/F3 FLT3-ITD^D835Y, Ba/F3 FLT3-ITD^F691L cells were determined.
(§2) Materials and reagents: fetal bovine serum FBS (GIBCO, Cat #10099141), CellTiter-Glo® Luminescent Cell Viability Assay kit (Promega, Cat #G7572), 96-well black-wall clear flat-bottom plate (Corning®, Cat #3603).
(§3) 1. Cells in the logarithmic growth phase were harvested and counted with a […]. Cell viability was detected by a trypan blue exclusion method, ensuring that cell viability was 90% or more; 2. Cell concentration was adjusted to about 3000 cells/well; 90 μl of cell suspension was added to each well of the 96-well plate; 3. The cells in the 96-well plate were incubated overnight under the condition of 37° C., 5% CO2, and 95% humidity.
(§4) 1. A series of compound solutions were formulated by 3.16-fold serial dilution starting from a concentration of 10 μM, resulting in 9 concentrations. 10 μL of the compound solutions were added in each well of the 96-well plate seeded with cells in triplicate for each compound concentration; 2. The cells in the 96-well plate added with compounds were further incubated under the condition of 37° C., 5% CO2, and 95% humidity for 72 hrs, and then CTG analysis was carried out.
(§5) 1. CTG reagent was thawed, and the cell plate was equilibrated at room temperature for 30 minutes; 2. An equal volume […] of CTG solution was added to each well; 3. The cell plate was shaken on an orbital shaker for 5 minutes to lyse the cells; 4. The cell plate was placed at RT for 20 minutes to stabilize the luminescence signal; 5. Luminescence value was read.
(§6) Data were Analyzed by GraphPad Prism 5.0 Software, and Fitted by Nonlinear S-Curve Regression to obtain a dose-response curve, from which IC50 values were calculated.
(§7) Cell survival rate (%)=(luminescence value of drug to be tested−luminescence value of culture medium control)/(luminescence value of cell control−luminescence value of culture medium control)×100%.

For assay [2], the system named is Ba/F3 KIF5B-RET^V804M cells. Described as above. The following applies: ratio of Ba/F3 parental IC50 to Ba/F3 KIF5B-RET^V804M IC50. The method, then: as §1, §2, §3, §4, §5, §6, §7
Assay [3] relates to Ba/F3 KIF5B-RET^G810R cells. Put plainly: Cytotoxicity assay (CellTiter-Glo), Ba/F3 KIF5B-RET G810R. Conditions: ratio of Ba/F3 parental IC50 to Ba/F3 KIF5B-RET^G810R IC50. The method, then: as §1, §2, §3, §4, §5, §6, §7
Assay [4] has as its target T2, Ba/F3 KIF5B-RET^G810R cells (Homo sapiens, UniProt P07949, G810R, cells depend on it).
T2 construct: Ba/F3 KIF5B-RET^G810R IC50 (nM); other: CellTiter-Glo, 72 hrs; fused on or other part: P33176 (Kinesin-1 heavy chain)
The description is as above. Conditions: CellTiter-Glo, 72 hrs; read-out: Ba/F3 KIF5B-RET^G810R IC50. The method, then: as §1, §2, §3, §4, §5, §6, §7

Assay [5] concerns Ba/F3 KIF5B-RET^V804L cells. Put plainly: Cytotoxicity assay (CellTiter-Glo), Ba/F3 KIF5B-RET V804L. The following applies: ratio of Ba/F3 parental IC50 to Ba/F3 KIF5B-RET^V804L IC50. Here is the method:
as §1, §2, §3, §4, §5, §6, §7

Assay [6] deals with T3, Ba/F3 KIF5B-RET^V804L cells (Homo sapiens, UniProt P07949, V804L, cells depend on it).
T3 construct: Ba/F3 KIF5B-RET^V804L IC50 (nM); other: CellTiter-Glo, 72 hrs; fused on or other part: P33176 (Kinesin-1 heavy chain)
Described as above. Conditions: CellTiter-Glo, 72 hrs; read-out: Ba/F3 KIF5B-RET^V804L IC50. The method, then: as §1, §2, §3, §4, §5, §6, §7

The target of assay [7] is T4, Ba/F3 FLT3-ITD^D835Y cells (Homo sapiens, UniProt P36888, D835Y, cells depend on it, form not given).
T4 construct: Ba/F3 FLT3-ITD^D835Y IC50 (nM); other: CellTiter-Glo, 72 hrs
T4 sequence (P36888 1-993 D835Y): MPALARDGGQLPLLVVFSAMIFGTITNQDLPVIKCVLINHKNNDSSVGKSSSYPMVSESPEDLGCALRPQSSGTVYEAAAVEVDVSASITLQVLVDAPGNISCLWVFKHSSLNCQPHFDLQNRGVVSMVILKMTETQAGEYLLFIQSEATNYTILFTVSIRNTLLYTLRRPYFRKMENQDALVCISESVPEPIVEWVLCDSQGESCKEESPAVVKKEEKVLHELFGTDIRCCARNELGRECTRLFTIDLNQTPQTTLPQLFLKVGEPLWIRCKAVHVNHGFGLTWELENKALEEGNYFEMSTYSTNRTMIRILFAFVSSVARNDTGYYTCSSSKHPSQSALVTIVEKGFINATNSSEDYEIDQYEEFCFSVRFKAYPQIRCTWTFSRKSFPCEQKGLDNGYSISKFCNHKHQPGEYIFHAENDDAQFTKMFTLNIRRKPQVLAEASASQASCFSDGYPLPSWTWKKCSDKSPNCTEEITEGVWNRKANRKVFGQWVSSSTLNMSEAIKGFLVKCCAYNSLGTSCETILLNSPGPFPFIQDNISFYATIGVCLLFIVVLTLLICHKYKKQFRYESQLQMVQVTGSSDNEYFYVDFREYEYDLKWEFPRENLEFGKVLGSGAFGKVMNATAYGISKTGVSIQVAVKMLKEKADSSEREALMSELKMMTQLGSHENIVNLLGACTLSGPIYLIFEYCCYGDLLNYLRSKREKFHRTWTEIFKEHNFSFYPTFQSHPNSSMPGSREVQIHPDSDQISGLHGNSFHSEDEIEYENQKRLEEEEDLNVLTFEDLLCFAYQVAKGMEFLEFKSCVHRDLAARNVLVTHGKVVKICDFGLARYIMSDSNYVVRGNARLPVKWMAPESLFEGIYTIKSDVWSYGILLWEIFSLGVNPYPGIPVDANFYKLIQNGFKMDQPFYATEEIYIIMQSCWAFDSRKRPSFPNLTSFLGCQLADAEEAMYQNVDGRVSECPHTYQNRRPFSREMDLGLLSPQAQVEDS
Put plainly: Cytotoxicity assay (CellTiter-Glo), Ba/F3 FLT3-ITD D835Y. Conditions: CellTiter-Glo, 72 hrs; read-out: Ba/F3 FLT3-ITD^D835Y IC50. The gist of the method: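 Growth inhibition in engineered Ba/F3 cells measured after 72 hrs compound exposure by CTG luminescence; IC50 from fitted dose-response curves.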

In assay [8] the test system is Ba/F3 parental generation cells. Put plainly: Cytotoxicity assay (CellTiter-Glo), Ba/F3 parental. The following applies: Mus musculus, BaF3, Table 2, 72 hrs. Here is the method: as §1, §2, §3, §4, §5, §6, §7

From patent publication US20220380375A1, “SUBSTITUTED AROMATIC FUSED RING DERIVATIVE AND COMPOSITION COMPRISING SAME, AND USE THEREOF” (Shenzhen TargetRx, Inc., priority 2019, published 2022) come the findings set out here.

Each structure is given as a SMILES string.

T3 sequence (P07949 whole entry V804L, the tested form may be a part): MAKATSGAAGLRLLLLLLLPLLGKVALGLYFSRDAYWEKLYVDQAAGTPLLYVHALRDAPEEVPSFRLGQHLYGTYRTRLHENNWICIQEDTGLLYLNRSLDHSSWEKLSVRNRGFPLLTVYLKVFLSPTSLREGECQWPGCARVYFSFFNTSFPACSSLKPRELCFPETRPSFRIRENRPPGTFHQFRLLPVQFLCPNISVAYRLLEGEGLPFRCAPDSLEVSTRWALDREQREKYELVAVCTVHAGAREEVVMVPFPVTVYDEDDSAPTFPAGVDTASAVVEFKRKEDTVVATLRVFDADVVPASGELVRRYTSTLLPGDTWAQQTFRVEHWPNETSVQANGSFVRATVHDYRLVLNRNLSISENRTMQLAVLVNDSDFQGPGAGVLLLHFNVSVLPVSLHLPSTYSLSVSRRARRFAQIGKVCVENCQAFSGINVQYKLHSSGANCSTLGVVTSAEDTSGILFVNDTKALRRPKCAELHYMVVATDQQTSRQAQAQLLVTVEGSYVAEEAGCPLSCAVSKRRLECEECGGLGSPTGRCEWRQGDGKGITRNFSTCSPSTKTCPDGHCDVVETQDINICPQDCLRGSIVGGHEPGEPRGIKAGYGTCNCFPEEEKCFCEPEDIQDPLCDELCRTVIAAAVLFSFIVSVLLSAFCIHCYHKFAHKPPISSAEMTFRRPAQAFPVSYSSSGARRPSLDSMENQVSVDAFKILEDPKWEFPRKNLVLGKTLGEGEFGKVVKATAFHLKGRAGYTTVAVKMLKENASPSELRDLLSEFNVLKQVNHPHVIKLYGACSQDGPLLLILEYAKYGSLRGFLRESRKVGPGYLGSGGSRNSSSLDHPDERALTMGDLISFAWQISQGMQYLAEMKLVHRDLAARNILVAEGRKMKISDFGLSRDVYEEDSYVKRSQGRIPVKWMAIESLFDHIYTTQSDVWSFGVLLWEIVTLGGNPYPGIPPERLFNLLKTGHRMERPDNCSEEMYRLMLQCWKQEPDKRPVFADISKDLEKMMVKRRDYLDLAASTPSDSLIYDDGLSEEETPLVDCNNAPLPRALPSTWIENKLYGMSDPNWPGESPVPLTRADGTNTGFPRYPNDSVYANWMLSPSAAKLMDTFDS
T2 sequence (P07949 whole entry G810R, the tested form may be a part): as the sequence (P07949 whole entry V804L, the tested form may be a part) above, with L804V, G810R counted along it
T1 sequence (P07949 whole entry V804M, the tested form may be a part): as the sequence (P07949 whole entry V804L, the tested form may be a part) above, with L804M counted along it

As for `CC(C)n1nc(-c2ccc(CC(=O)Nc3cc(C(C)(C)C(F)(F)F)on3)cc2)c2c(N)ncnc21` [Compound T-1, 2-(4-(4-amino-1-isopropyl-1H-pyrazolo[3,4-d]pyrimidin-3-yl)phenyl)-N-(5-(1,1,1-trifluoro-2-methylprop-2-yl)isoxazol-3-yl)acetamide], the GI50 in assay [1] stood at 5.65 nM; in assay [4], 2.64 nM; in assay [6], 3.71 nM; in assay [7] it was 14.4 nM. Besides, the “Ba/F3 KIF5B-RET^V804M Selectivity on parental generation” value (shortened to “Ba/F3 KIF5B-RET^V804M Selectivity”) in assay [2] is listed as 286.8. Further, the “Ba/F3 KIF5B-RET^G810R Selectivity on parental generation” value (“Ba/F3 KIF5B-RET^G810R Selectivity” for short) in assay [3] was determined as 613.8. Further, the “Ba/F3 KIF5B-RET^V804L Selectivity on parental generation” value (“Ba/F3 KIF5B-RET^V804L Selectivity” below) in assay [5] came to 436.8. Moreover, the IC50 in assay [8] was 1620 nM.
In the case of `CC(C)c1cc(-c2ccc(CC(=O)Nc3cc(C(C)(C)C(F)(F)F)on3)cc2)c2c(N)ncnn12` [Compound T-5, 2-(4-(4-amino-7-isopropylpyrrolo[2,1-f][1,2,4]triazin-5-yl)phenyl)-N-(5-(1,1,1-trifluoro-2-methylprop-2-yl)isoxazol-3-yl)acetamide], the GI50 in assay [1] turned out to be 12.9 nM; in assay [4], 13.6 nM; in assay [6], 19.7 nM; in assay [7], 35.8 nM. For the same molecule, the “Ba/F3 KIF5B-RET^V804M Selectivity” value in assay [2] is listed as 370.8. Also, the “Ba/F3 KIF5B-RET^G810R Selectivity” value in assay [3] is 351.7. Moreover, the “Ba/F3 KIF5B-RET^V804L Selectivity” value in assay [5] came out at 242.8. In addition, the IC50 in assay [8] amounted to 4780 nM.
For the molecule `CC(C)c1nc(-c2ccc(CC(=O)Nc3cc(C(C)(C)C(F)(F)F)on3)cc2)c2c(N)ncnn12` [Compound T-10, 2-(4-(4-amino-7-isopropylimidazo[5,1-f][1,2,4]triazin-5-yl)phenyl)-N-(5-(1,1,1-trifluoro-2-methylprop-2-yl)isoxazol-3-yl)acetamide], the GI50 in assay [1] is 11.7 nM; in assay [4], 2.78 nM; in assay [6] it was 18.4 nM; in assay [7], 46.4 nM. Moreover, in assay [2], the “Ba/F3 KIF5B-RET^V804M Selectivity” value was determined as 191.6. The “Ba/F3 KIF5B-RET^G810R Selectivity” value in assay [3] was found to be 806.5. In addition, the “Ba/F3 KIF5B-RET^V804L Selectivity” value in assay [5] was 121.8. In addition, the concentration for half-maximal inhibition (IC50) in assay [8] was 2240 nM.
In the case of `CC(C)c1nc(-c2ccc(CC(=O)Nc3cc(C(C)(C)C(F)(F)F)on3)cc2)c2c(N)nccn12` [Compound T-4, 2-(4-(8-amino-3-isopropylimidazo[1,5-a]pyrazin-1-yl)phenyl)-N-(5-(1,1,1-trifluoro-2-methylprop-2-yl)isoxazol-3-yl)acetamide], the GI50 in assay [1] turned out to be 9.53 nM; in assay [4] it was 25.5 nM; in assay [6], 31.6 nM; in assay [7], 23.1 nM. Moreover, the “Ba/F3 KIF5B-RET^V804M Selectivity” value in assay [2] is 73.6. The “Ba/F3 KIF5B-RET^G810R Selectivity” value in assay [3] is listed as 27.5. Further, in assay [5], the “Ba/F3 KIF5B-RET^V804L Selectivity” value was determined as 22.2. In addition, the IC50 in assay [8] was 701 nM.
On to `[2H]C([2H])([2H])C(n1cc(-c2ccc(CC(=O)Nc3cc(C(C)(C)C(F)(F)F)on3)cc2)c2c(N)ncnc21)C([2H])([2H])[2H]` [Compound T-12, 2-(4-(4-amino-7-(propen-2-yl-1,1,1,3,3,d6)-7H-pyrrolo[2,3-d]pyrimidin-5-yl)phenyl)-N-(5-(1,1,1-trifluo-2-methylpropan-2-yl)isoxazol-3-yl)acetamide], for which the GI50 in assay [1] stood at 4.55 nM; in assay [4] it was 6.4 nM; in assay [6], 8.11 nM; in assay [7], 12.3 nM. The “Ba/F3 KIF5B-RET^V804M Selectivity” value in assay [2] came to 235.6. In addition, the “Ba/F3 KIF5B-RET^G810R Selectivity” value in assay [3] is given as 167.5. Moreover, in assay [5], the “Ba/F3 KIF5B-RET^V804L Selectivity” value amounted to 132.2. The IC50 in assay [8] turned out to be 1070 nM.
